Assay results published in patent US20230031009A1, “TREATMENT FOR CHEMOBRAIN” (YALE UNIVERSITY, priority 2020, published 2023).
“Also recorded” adds a separate entry of the source. Blank lines part the entries; values can stand above or below the compound they belong to.

Tests used:
Type in all cases: in vivo, mouse
[1] = tested on: female C57BL/6 mice; experiment: Open-field exploration (OFE): locomotor activity and anxiety (thigmotaxis)
Protocol: Seven-week-old female C57BL/6 mice were purchased from Charles River (Wilmington, Mass., USA) and allowed to habituate to the facility for 7 days, followed by 3 days of handling before the start of the experiment. Mice were randomly assigned into groups, with all groups represented in each cage. […]
Behavioral experiments were adapted from a published protocol (35). Data were analyzed blinded to the experimental conditions. […]
For the OFE task, each mouse was allowed to explore the arena for 10 min. The camera footage was then analyzed using ToxTrac, a published program for the total distance moved and time spent in the peripheral versus the central areas (36). For the DOR task, pairs of 50-mL tubes filled with corn cob bedding were taped cap-down to pre-determined positions in the arena. […] The camera footage was then analyzed for bouts of interactions with the tubes. […] Casual touching of the tubes in passing, or leaning onto the tubes to look around were not counted. The preference index for the displaced object was calculated as 100*(time spent with displaced object)/(total time spent with both displaced and familiar objects). The preference index for the familiar object was similarly calculated. […]

[2] = tested on: PKCα; experiment: Western blot of brain tissue for PKCα
Protocol: (§1) Golgi-Cox staining solutions were prepared in advance, according to a published protocol (37). For tissue collection, each mouse was first anesthetized for ˜30 s with […] isoflurane, and then quickly decapitated with scissors. The skull was opened, and the brain was extracted and washed briefly in ice-cold 1× phosphate-buffered saline solution (PBS, AmericanBio). A razor blade was then used to dissect the brain into two hemispheres along the medial longitudinal fissure. One hemisphere was immediately dropped into a 25-mL scintillation vial containing 10 mL of impregnation stock solution. The other hemisphere was rapidly dissected into the cerebellum, hippocampus, frontal cortex, and midbrain, snap-frozen in liquid nitrogen, and then subsequently stored at −80° C. until further use.
(§2) Frozen tissues were thawed in RIPA buffer containing protease inhibitor, phenylmethylsulfonyl fluoride (PMSF), and sodium orthovanadate (Santa Cruz), homogenized with a polytron, and then spun down twice at 13000 rpm, 4° C. to remove cell debris. Protein concentration was quantified using Pierce BCA protein assay kit (ThermoFisher Scientific) according to the manufacturer's instruction. Western blots were performed using the NuPAGE system (ThermoFisher Scientific) and PVDF membrane with the Biorad wet transfer system (Bio-Rad Laboratories). Approximately 20 μg total protein was loaded into each lane. Information about the antibodies used is included in Supp.

[3] = tested on: pMARCKS (S152/156); experiment: Western blot of brain tissue for pMARCKS; conditions: cortex, 24 h after paclitaxel injection
Protocol: as §1
as §2, with “Information about the antibodies used is included in Supp.” left out

[4] = tested on: granule cells in the dentate gyrus of the hippocampus; experiment: Golgi-Cox staining and Sholl analysis of hippocampal neurons; conditions: 30 DPI
Protocol: as §1
Golgi-Cox staining was performed according to a published protocol (37). Briefly, the samples were impregnated with a potassium dichromate and mercuric chloride solution at room temperature for 7 days, followed by immersion in a cryoprotection solution for 4 days, and then sectioned into […] frontal slices with a vibratome. The Golgi Atlas of the Postnatal Mouse Brain was used as the reference to identify the section position of the slices (38). […] Spine density was quantified as the number of protrusions on dendritic branches per μm dendrite length

[5] = tested on: InsP3R1, NCS1, phospholipase C (PLC-β1); experiment: Western blot of brain tissue for other InsP3R pathway proteins; conditions: 30 DPI, paclitaxel
Protocol: as §1
as §2, with “Information about the antibodies used is included in Supp.” left out

[6] = tested on: female C57BL/6 mice; experiment: Displaced object recognition (DOR) task in paclitaxel-induced model of cognitive impairment; conditions: for preference for the displaced object (DOR task): saline and paclitaxel 4×20 mg/kg, 20 mg/kg
Protocol: (§3) Seven-week-old female C57BL/6 mice were purchased from Charles River (Wilmington, Mass., USA) and allowed to habituate to the facility for 7 days, followed by 3 days of handling before the start of the experiment. Mice were randomly assigned into groups, with all groups represented in each cage. Depending on the treatment group, lithium chloride (Sigma-Aldrich, 12.8 mg/kg in 0.9% saline), chelerythrine chloride (Cayman Chemical, 2 mg/kg in 0.4% DMSO in saline), or the appropriate vehicle was administered intraperitoneally 1 h before injection of vehicle (20% 50:50 Cremophor EL: ethanol, 80% saline) or paclitaxel (Cayman Chemical, 20 mg/kg in 20% 50:50 Cremophor EL: ethanol, 80% saline) to induce cognitive impairment. Each mouse received a total of 4 pairs of injections over 8 days. During and after injections, mice were weighed daily and checked for general health and any sign of pain or distress.
Behavioral experiments were adapted from a published protocol (35). Data were analyzed blinded to the experimental conditions. Open-field exploration (OFE) and displaced object recognition (DOR) tasks were carried out over two consecutive days (FIG. 4.1). The experimental arena was a 35×70×35 cm opaque, white Plexiglas chamber. The arena was covered with ˜1 cm of standard corn cob bedding. […]
For the OFE task, each mouse was allowed to explore the arena for 10 min. The camera footage was then analyzed using ToxTrac, a published program for the total distance moved and time spent in the peripheral versus the central areas (36). For the DOR task, pairs of 50-mL tubes filled with corn cob bedding were taped cap-down to pre-determined positions in the arena. […] The camera footage was then analyzed for bouts of interactions with the tubes. […] Casual touching of the tubes in passing, or leaning onto the tubes to look around were not counted. The preference index for the displaced object was calculated as 100*(time spent with displaced object)/(total time spent with both displaced and familiar objects). The preference index for the familiar object was similarly calculated.

[7] = Body weight during and after paclitaxel injections
Protocol: as §3

[8] = tested on: layers 2/3 cortical pyramidal neurons; experiment: Golgi-Cox staining and Sholl analysis of cortical neurons
Protocol: as §1
Golgi-Cox staining was performed according to a published protocol (37). Briefly, the samples were impregnated with a potassium dichromate and mercuric chloride solution at room temperature for 7 days, followed by immersion in a cryoprotection solution for 4 days, and then sectioned into […] frontal slices with a vibratome. The Golgi Atlas of the Postnatal Mouse Brain was used as the reference to identify the section position of the slices (38). Slices corresponding to frontal sections 10 and 11 in the atlas were selected for imaging the hippocampus and the parietal cortex. Slices corresponding to frontal sections 4 and 5 were selected for imaging the prefrontal cortex. The selected slices were mounted on 0.3% gelatin-coated slides, developed and dehydrated through a series of increasing alcohol concentrations, then with xylene, and finally mounted in Eukitt solution (Sigma Aldrich) for imaging. Z-stack images of different regions, including the dentate gyrus and the frontal cortex, were collected using a Zeiss LSM 710 Duo microscope with 20× and 60× objectives. […] Spines were imaged from basal dendritic branches at least […] away, and apical dendritic branches at least […] away from the cell soma. Scholl analysis, total dendritic length, number of branch points, and spine density were performed with ImageJ using the Simple Neurite Tracer plugin (39). Spine density was quantified as the number of protrusions on dendritic branches per μm dendrite length

[9] = medial prefrontal cortex, comparison among 4 groups
[10] = saline/paclitaxel vs the other three groups

Structure (SMILES): COc1ccc2c(c[n+](C)c3c4cc5c(cc4ccc23)OCO5)c1OC [chelerythrine, chelerythrine chloride]
locomotor activity and anxiety (total distance moved, thigmotaxis) ([1]; chelerythrine groups vs other groups, 4 DPI and 22 DPI): no differences

total dendritic length ([4]; saline and paclitaxel vs other groups): significant reduction
total dendritic length ([8]; frontal cortex, saline and paclitaxel vs other groups, 30 DPI): significant reduction
basal dendritic length [8, 9]: no significant differences
basal spine density [8, 9]: no significant differences
apical dendritic length [8, 10]: significant reduction
apical spine density [8, 10]: significant reduction
Structure (SMILES): CC(=O)O[C@H]1C(=O)[C@@]2(C)[C@H]([C@H](OC(=O)c3ccccc3)[C@]3(O)C[C@H](OC(=O)[C@H](O)[C@@H](NC(=O)c4ccccc4)c4ccccc4)C(C)=C1C3(C)C)[C@]1(OC(C)=O)CO[C@@H]1C[C@@H]2O [paclitaxel]
PKCα protein level ([2]; cortex, 30 DPI (chronic), 4×20 mg/kg paclitaxel): upregulation
PKCα protein level ([2]; cortex, 24 h after a single 20 mg/kg paclitaxel injection (acute)): upregulation
PKCα protein level ([2]; hippocampus, 24 h after a single 20 mg/kg paclitaxel injection (acute)): upregulation
pMARCKS (S152/156) level [3]: trend towards increased pMARCKS
dendritic complexity (Sholl analysis) ([4]; saline and paclitaxel vs saline/vehicle, particularly 20-90 μm from the soma): reduced dendritic arborization; also recorded: substantial reduction in dendritic complexity
levels of other InsP3R pathway proteins (InsP3R1, NCS1, PLC-β1) [5]: No changes
DOR task performance ([6]; 4×20 mg/kg paclitaxel, after optimization, time not stated): sufficient to impair DOR task performance without additional side effects
preference for the displaced object (DOR task) ([6]; 5 DPI): no discrimination between the two objects; also recorded: did not discriminate between the objects; also recorded: impaired short-term spatial memory acquisition; also recorded: no preference for either object
preference for the displaced object (DOR task) ([6]; 23 DPI): did not discriminate between the objects; also recorded: impaired short-term spatial memory acquisition; also recorded: persisted up to 23 DPI
body weight loss ([7]; after 2 paclitaxel injections, normalized to first day of injection (FIG. S1)): 5-10%
body weight loss ([7]; during injections, normalized to first day of injection (FIG. S3)): approximately 5%
weight loss, comparison among groups ([7]; over the injection duration): No significant differences; also recorded: No significant weight loss
locomotor activity and anxiety (total distance, thigmotaxis) ([1]; mouse, in vivo, 20 mg/kg): neither impaired locomotor activity nor caused increased anxiety
dendritic complexity (Sholl analysis) ([8]; frontal cortex, saline and paclitaxel, 30 DPI): significant reduction in dendritic complexity
basal dendrites: complexity (Sholl analysis) [8, 9]: no significant differences; also recorded: largely spared; also recorded: not observed in basal dendrites
apical dendrites: dendritic arborization (Sholl analysis) ([8]; saline/paclitaxel vs saline/vehicle, particularly 110-230 μm): reduced dendritic arborization; also recorded: primarily due to differences in apical dendrites
